# In patent US12099068B2, “Biomarkers for graft-versus-host disease” (Incyte Corporation, priority 2018, dated 2024):
# “And” between values parts separate entries of the source, which are not always exact repeats. Equal entries are not always repeated. Where no end group is shown, it is not given here.
# What was measured:
# Type in all cases: in vivo, human
# plasma proteins [1] = assay: Plasma proteins modulated between baseline and day 28 in responders (CR, VGPR, PR; n = 19), Example 6 (Table 13); conditions: for Fold Change, Decreased Expression from Baseline to Day 28 / Fold Change, Increased Expression from Baseline to Day 28: plasma protein (OLINK NPX), responders (CR, VGPR, PR; n = 19), itacitinib 200 mg or 300 mg QD with corticosteroids, day 28 vs baseline
# Procedure: (§1) Due to the limited sample size, steroid-naive (N=10) and steroid-refractory (N=18) patients were combined for further analysis. Broad proteomic analysis of over 1000 proteins was conducted by OLINK Proteomics (Watertown, MA) using a proximity extension assay as described by the manufacturer. Data are presented as normalized protein expression (NPX) in log 2 scale. Statistical differences were evaluated using unpaired and paired t tests, one-way […] (ANOVA), and Pearson Correlation. Significance was conferred when P<0.05.
# Longitudinal differences in protein expression were analyzed by evaluating plasma samples from baseline/screening and day 28.
# plasma proteins [2] = assay: Proteins of Table 11 stably expressed in complete responders between days 1 and 28, Example 5 (Table 12); conditions: between baseline (Day 1) and Day 28
# Procedure: as §1
# subjects with aGvHD = assay: Parallel-cohort phase 1 trial, clinical response by CIBMTR response criteria at day 28
# Excerpt: A broad proteomic analysis identified predictive, prognostic, and pharmacodynamic biomarkers of response to the combination treatment.
# Ten steroid-naive and eighteen steroid-refractory subjects with aGvHD were enrolled in the clinical trial. Plasma samples were collected from all 28 subjects prior to treatment (screening/baseline) and at day 28 following treatment. All subjects provided written consent prior to enrollment and sample collection. Based on the Center for International Blood and Marrow Transplant Research (CIBMTR) response criteria at day 28, subjects were separated into responders and non-responders. Responders included complete responders (CR; n=10), very good partial responders (VGPR; n=1), and partial responders (PR; n=8). Non-responders included mixed responders (n=2) and progressive disease/death (PD/Death; n=7).
# as §1
# [3] = responders (CR, VGPR, PR; N=19), baseline to day 28
Compound,"Fold Change, Decreased Expression from Baseline to Day 28 (plasma proteins [1])","Fold Change, Increased Expression from Baseline to Day 28 (plasma proteins [1])",other results
COL4A1,−1.2699,,
LTBP2,,1.1874,
CA13,−1.8816,,
ADGRG1,−1.1823,,
CCL11,,1.2818 and 1.3146,
ADM,,1.2035,
ARSB,−1.3432,,
"GAL (GWTLNSAGYLLGPHAVGNHRSFSDKNGLTS; Galanin; UniProt P22466 33-62, looked up)",,1.6888,
YES1,−1.9824,,
PXN,−1.329,,
MAP4K5,−1.658,,
IQGAP2,−1.5317,,
ANXA11,−1.3456,,
METRNL,,1.2013,
NMNAT1,−1.4212,,
TXNDC5,−1.4081,,
PTX3,−1.5567,,
SCARA5,,1.1342,
IGF1R,,1.2432,
PECAM-1,−1.2009,,
EIF4G1,−1.5969,,

Compound,"Fold Change, Decreased Expression from Baseline to Day 28 (plasma proteins [1])","Fold Change, Increased Expression from Baseline to Day 28 (plasma proteins [1])",other results
Siglec-9,−1.1514,,
CD27,−1.6873,,
DNAJB1,−1.7332,,
THPO,,1.867,
TNC,−1.6915,,
DSC2,−1.3652,,
SIGLEC1,−1.3842,,
MMP7,,1.3986,
"N#CCC1(n2cc(-c3ncnc4[nH]ccc34)cn2)CN(C2CCN(C(=O)c3ccnc(C(F)(F)F)c3F)CC2)C1 [itacitinib, {1-{1-[3-Fluoro-2-(trifluoromethyl)isonicotinoyl]piperidin-4-yl}-3-[4-(7H-pyrrolo[2,3-d]pyrimidin-4-yl)-1H-pyrazol-1-yl]azetidin-3-yl}acetonitrile]",,,"proteins from Table 11 that did not modulate in complete responders (plasma proteins [2]): 89; proteins significantly elevated (plasma proteins [1]; [3]): 105; proteins significantly reduced (plasma proteins [1]; [3]): 248; total proteins significantly modulated by treatment (plasma proteins [1]; [3]): 353; Clinical response between the two itacitinib doses (subjects with aGvHD; 200 mg vs 300 mg once daily (QD) + corticosteroids): not significantly different; overall responses (subjects with aGvHD; combination with corticosteroids, steroid naïve and refractory aGvHD patients): improved overall responses"
TOP2B,−1.7634,,
DEFA1,−1.9173,,
IGF2R,,1.1734,
Gal-3,,1.3504,
ERBB2,,1.1968,
MCP-1,,1.6302 and 1.4322,
MMP-1,−1.4112,,
MAX,−1.449,,
TRIM5,−1.4743,,
MUC-16,,1.6356,
TIMP1,−1.2337,,
LILRA5,−1.342,,

Compound,"Fold Change, Decreased Expression from Baseline to Day 28 (plasma proteins [1])","Fold Change, Increased Expression from Baseline to Day 28 (plasma proteins [1])",other results
HGF,−1.5542,,
ITGB2,−1.6877,,
NRP1,−1.1237,,
IL6,,2.0047 and 1.8649 and 1.7278,
PLXNA4,−1.405,,
ARHGEF12,−1.8347,,
NTRK3,,1.2526,
CBL,−1.7183,,
VSIG4,−1.5046,,
"PPY (APLEPVYPGDNATPEQMAQYAADLRRYINMLTRPRY; ends and bridges not checked; UniProt P01298 30-65, looked up)",,1.9703,
EZR,,1.1031,
NEMO,−1.7984,,
NCAM1,,1.3216,
PPP1R9B,−1.6445,,
AXIN1,−1.8046,,
HAVCR2,−1.312,,
TNXB,−1.156,,
FABP2,,3.5893,
GCG,,1.8922,
DKN1A,−1.4302,,
PAPPA,−1.3491,,

Compound,"Fold Change, Decreased Expression from Baseline to Day 28 (plasma proteins [1])","Fold Change, Increased Expression from Baseline to Day 28 (plasma proteins [1])",other results
NTRK2,,1.118,
SCF,,1.4714 and 1.3943 and 1.4058,
STIP1,−1.2812,,
THBS2,,1.0963,
DECR1,−1.4327,,
CD38,−1.4181,,
NCR1,−1.3726,,
CXCL5,−1.7254,,
FKBP1B,−1.9994,,
TPSAB1,−1.9835,,
CLEC1B,−1.7033,,
HDGF,−1.3392,,
LY75,−1.1401,,
FGR,−1.4406,,
APP,−1.5208,,
THBS4,−1.7307,,
FURIN,,1.2365,
PDGF subunit A,−1.6021,,
PIgR,,1.1476,
